# According to patent US6753310B1, “Neovascular-specific peptides” (Otsuka Pharmaceutical Co., Ltd., priority 1998, dated 2004):
# Where no end group is shown, it is not given here.
# How the values were obtained:
# Meth A sarcoma = assay: Tumor growth inhibition (tumor volume) in solid tumor-bearing mice, subcutaneous administration; type: in vivo, BALB/c mice; conditions: for tumor growth inhibiting effect (tumor volume): FIG. 3, days 1 to 11, vs distilled water; for antitumor activity (tumor volume) / order of intensities of the antitumor activity: FIG. 10
# Procedure: Solid tumor-bearing mice were prepared by subcutaneously administering 0.2 ml of Meth A sarcoma cells (5×10^6 cells/ml) into the left flank of five-week-old BALB/c male mice (Japan SLC). After 6 to 10 days from sarcoma implantation, when the diameter of the post-implantation tumor in tumor-bearing mice arrived at 4 mm was taken as day 1 and, on days 1 to 11, distilled water (D.W.) as a control or 20 mg/kg/day of each of the above dendrimers (1) to (3) was subcutaneously administered for 11 consecutive days (4 mice were used in each group).
# The antitumor effect of each dendrimer peptide was evaluated 6 days after implantation and thereafter by examining the tumor growth, the body weight change and the survival time (days) as an indicator of side effect. At the same time, the minor axis and major axis of each tumor were measured and the tumor volume was calculated according to the formula shown below.
# Tumor volume=0.4×a×b^2 (a: major axis, b: minor axis)
# Doses of 10 mg/kg×twice/day and 20 mg/kg×twice/day of the dendrimer peptide derived from the peptide of SEQ ID NO:1 as synthesized in Example 4 (1) and a dose of 20 mg/kg×twice/day of a dendrimer peptide (SEQ ID NO:18) derived from a peptide resulting from replacement of an arbitrary sequence for the sequence shown in SEQ ID NO:1, and distilled water (DW) as a control were subcutaneously administered to mice on days 1 to 10 after tumor cell implantation according to the method of Example 4 (2), and the tumor growth inhibiting activities were examined. Four to six mice per group were subjected to the experiment. The results obtained are shown in FIG. 5 in the same manner as in FIG. 3 (ordinate: tumor volume (cm^3), abscissa: days after tumor cell implantation (days)).
# The three short-chain peptides synthesized and physiological saline as a control were respectively administered subcutaneously to mice on days 1 to 10 following tumor cell implantation according to the method of Example 4 (2), and the tumor growth inhibiting activities were examined. The results obtained are shown in FIG. 6 in the same manner as in FIG. 3.
# (§1) A dose of 20 mg/kg/day of each of the peptides synthesized in the above manner or distilled water (DW) as a control was subcutaneously administered to mice on days 4 to 9 after tumor cell implantation according to the method of Example 4 (2), and the tumor growth inhibiting activities were examined. Three to five mice per group were used in the experiment. The results are shown in FIG. 7 in the same manner as in FIG. 3.
# as §1, with “or physiological saline” for “or distilled water (DW)”, “days 1” for “days 4”, “to 10” for “to 9”, “examined. Four or” for “examined. Three to”, “FIG. 8” for “FIG. 7”
# as §1, with “water” for “water (DW)”, “days 1” for “days 4”, “to 10” for “to 9”, “examined. Five or six” for “examined. Three to five”, “FIG. 9” for “FIG. 7”
# as §1, with “water or physiological saline” for “water (DW)”, “days 1” for “days 4”, “to 10” for “to 9”, “examined. Five or six” for “examined. Three to five”, “FIG. 10 (results with the peptides of SEQ ID NO:28-32) and FIG. 11 (results with the peptides of SEQ ID NO:33-35)” for “FIG. 7”, “3. […]” for “3.”
# [1] = tested on: B16BL6 melanoma tumor tissue; assay: Competitive inhibition experiment using the respective phages and synthetic 15-residue peptides; type: in vivo, C57BL/6 mice; conditions: for % Dose/100 mg tissue: tail vein; for inhibitory activity against accumulation of phages Nos. 5 and 6: synthetic peptides with common sequence WRP
# Procedure: The synthetic peptides having the amino acid sequences shown in SEQ ID NO:1, 5 and 6 were respectively administered simultaneously with the phages No. 1, No. 5 and No. 6 in a similar manner as in Example 1 (5). Each peptide was synthesized as in Example 2.
# (§2) Thus, 10 days after implantation of B16BL6 melanoma (1×10^6 cells) into five-week-old C57BL/6 mice (obtained from Japan SLC), a mixed solution (0.2 ml) of 0.25 μmol of one of the above synthetic peptides and the respective phage (1×10^8 colony forming units) was administered into the tail vein of each tumor-bearing mouse under anesthesia, and the colony forming units of the phage accumulated in the tumor tissue were counted in a similar manner as mentioned above.
# In a control group, synthetic peptide-free phage solutions (1×10^8 colony forming units) were administered.
# Phages accumulated in neovascular tissues in tumor tissues were counted through colony formation, and each synthetic peptide was evaluated for its inhibitory effect on phage accumulation using, as a reference value, the ratio of accumulation of the peptide-expressing phage in tumor without simultaneous administration of the synthetic peptide.
# [2] = tested on: B16BL6 melanoma tumor tissue; assay: Competitive inhibition experiment using the respective phages and synthetic 8-residue or 5-residue peptides; type: in vivo, C57BL/6 mice; conditions: for inhibition of phage accumulation in tumor by 5-residue synthetic peptides: FIG. 2, SEQ ID NO:15 with phage No. 5, SEQ ID NO:16 with phage No. 6; for cross reactivity between phages / inhibitory activity compared with the 15-residue synthetic peptides / inhibition of phage accumulation by 8-residue synthetic peptides: FIG. 1; for inhibition of phage accumulation by 8-residue synthetic peptides: phages expressing the corresponding 15-residue peptides (Nos. 5 and 6)
# Procedure: as §2
# Using a similar method as described above under (2) and using the four short-chain peptides (SEQ ID NO:13 to 16) obtained as mentioned above under (2) in lieu of the synthetic peptides (SEQ ID NO:5 and 6), the synthetic peptides and the respective phages were administered and colony forming units for the phages accumulated in the tumor tissue were counted, and the short-chain synthetic peptides were evaluated for their inhibitory effect on phage accumulation. In a control group,synthetic peptide-free phage solutions (1×10^8 colony forming units) were administered.
# In each figure, the ordinate denotes the phase accumulation percentage (%) and the abscissa denotes the phage number. In FIG. 1, the open bar is for the group (control group) given the phage alone without administration of any synthetic peptide, the shaded bar is for the group given the short-chain synthetic peptide shown in SEQ ID NO:13 and the closed bar is for the group given the short-chain synthetic peptide shown in SEQ ID NO:14.
# In FIG. 2, the open bar is for the group (control group) given the phage alone without administration of any synthetic peptide, the closed bar is for the group given the short-chain peptide shown in SEQ ID NO:15 (where phage No. 5 was used) and the shaded bar is for the group given the short-chain peptide shown in SEQ ID NO:16 (where phage No. 6 was used).
# [3] = FIG. 6, subcutaneously, days 1 to 10, vs physiological saline
# [4] = accumulation of phage No. 1 (1×10^8 cfu) co-administered with 0.25 μmol synthetic peptide
# [5] = accumulation of phage No. 5 (1×10^8 cfu) co-administered with 0.25 μmol synthetic peptide
# [6] = accumulation of phage No. 6 (1×10^8 cfu) co-administered with 0.25 μmol synthetic peptide
# [7] = inhibition of phage No. 1 accumulation in tumor by 0.25 μmol synthetic peptide
# [8] = inhibition of phage No. 5 accumulation in tumor by 0.25 μmol synthetic peptide
# [9] = inhibition of phage No. 6 accumulation in tumor by 0.25 μmol synthetic peptide
# [10] = 20 mg/kg/day subcutaneously, days 1 to 10
substance,measurement,setting,value
"(ASSSYPLIHWRPWAR)8-LYs4-Lys2-Lys-βAla (also: octameric lysine dendrimer (Lys4-Lys2-Lys-βAla core), 8 copies)",tumor growth inhibiting effect (tumor volume),Meth A sarcoma; 20 mg/kg/day subcutaneously,marked tumor growth inhibiting effects
"(DRWRPALPVVLFPLH)8-Lys4-Lys2-Lys-βAla (also: octameric lysine dendrimer (Lys4-Lys2-Lys-βAla core), 8 copies)",tumor growth inhibiting effect (tumor volume),Meth A sarcoma; 20 mg/kg/day subcutaneously,marked tumor growth inhibiting effects
"(PRPGAPLAGSWPGTS)8-Lys4-Lys2-Lys-βAla (also: octameric lysine dendrimer (Lys4-Lys2-Lys-βAla core), 8 copies)",tumor growth inhibiting effect (tumor volume),Meth A sarcoma; 20 mg/kg/day subcutaneously,marked tumor growth inhibiting effects
same,tumor growth inhibiting activity (tumor volume),"Meth A sarcoma; FIG. 5, 10 and 20 mg/kg×twice/day subcutaneously, days 1 to 10",dose-dependent tumor growth inhibiting activity
APRPG (APRPG-NH2) [SEQ ID NO: 17],tumor growth inhibiting activity (tumor volume),Meth A sarcoma; [3],tendency toward inhibition of tumor growth
ASSSYPLIHWRPWAR (phage library) [SEQ ID NO: 6],% Dose/100 mg tissue,[1]; [4],5.92 × 10^−3 % Dose/100 mg tissue
same,% Dose/100 mg tissue,[1]; [5],3.61 × 10^−3 % Dose/100 mg tissue
same,% Dose/100 mg tissue,[1]; [6],6.43 × 10^−3 % Dose/100 mg tissue
same,Accumulation inhibition %,[1]; [7],55%
same,Accumulation inhibition %,[1]; [8],76%
same,Accumulation inhibition %,[1]; [9],44%
same,inhibitory activity against accumulation of phages Nos. 5 and 6,[1],crosswise inhibitory activity
DRWRPALPVVLFPLH (phage library) [SEQ ID NO: 5],% Dose/100 mg tissue,[1]; [4],6.36 × 10^−3 % Dose/100 mg tissue
same,% Dose/100 mg tissue,[1]; [5],5.08 × 10^−3 % Dose/100 mg tissue
same,% Dose/100 mg tissue,[1]; [6],6.60 × 10^−3 % Dose/100 mg tissue
same,Accumulation inhibition %,[1]; [7],52%
same,Accumulation inhibition %,[1]; [8],66%
same,Accumulation inhibition %,[1]; [9],43%
same,inhibitory activity against accumulation of phages Nos. 5 and 6,[1],crosswise inhibitory activity
same,tumor growth inhibiting activity (tumor volume),"Meth A sarcoma; FIG. 7, 20 mg/kg/day subcutaneously, days 4 to 9",have tumor growth inhibiting activity
HWRPW (HWRPW-NH2) [SEQ ID NO: 16],inhibition of phage accumulation in tumor by 5-residue synthetic peptides,[2],inhibit likewise the accumulation in tumor of the phages
PRPGAPLAGSWPGTS (phage library) [SEQ ID NO: 1],% Dose/100 mg tissue,[1]; [4],5.95 × 10^−3 % Dose/100 mg tissue
same,% Dose/100 mg tissue,[1]; [5],1.35 × 10^−2 % Dose/100 mg tissue
same,% Dose/100 mg tissue,[1]; [6],1.14 × 10^−2 % Dose/100 mg tissue
same,Accumulation inhibition %,[1]; [7],55%
same,Accumulation inhibition %,[1]; [8],9%
RWRPA (RWRPA-NH2) [SEQ ID NO: 15],inhibition of phage accumulation in tumor by 5-residue synthetic peptides,[2],inhibit likewise the accumulation in tumor of the phages
SEQ ID NO: 13: 8-Residue peptide comprising positions 1 to 8 of SEQ ID NO: 5 (DRWRPALP; phage library),cross reactivity between phages,[2],showed cross reactivity
same,inhibitory activity compared with the 15-residue synthetic peptides,[2],higher in inhibitory activity than the 15-resiude synthetic peptides
same,inhibition of phage accumulation by 8-residue synthetic peptides,[2],inhibited the accumulation of the phages
SEQ ID NO: 14: 8-Residue peptide comprising positions 8 to 15 of SEQ ID NO: 6 (IHWRPWAR; phage library),cross reactivity between phages,[2],showed cross reactivity
same,inhibitory activity compared with the 15-residue synthetic peptides,[2],higher in inhibitory activity than the 15-resiude synthetic peptides
same,inhibition of phage accumulation by 8-residue synthetic peptides,[2],inhibited the accumulation of the phages
SEQ ID NO: 19: 12-Residue peptide containing positions 1 to 8 of SEQ ID NO: 1 (ADGAPRPGAPLA; phage library),tumor growth inhibiting activity (tumor volume),Meth A sarcoma; [3],tendency toward inhibition of tumor growth
SEQ ID NO: 28: 4-Residue peptide comprising positions 2 to 5 of SEQ ID NO: 5 (RWRP; phage library),antitumor activity (tumor volume),Meth A sarcoma; [10],has antitumor activity
same,order of intensities of the antitumor activity,Meth A sarcoma; [10],peptide of SEQ ID NO:28=peptide of SEQ ID NO:29>peptide of SEQ ID NO:30=peptide of SEQ ID NO:31>peptide of SEQ ID NO:32
SEQ ID NO: 29: 4-Residue peptide comprising positions 9 to 12 of SEQ ID NO: 6 (HWRP; phage library),antitumor activity (tumor volume),Meth A sarcoma; [10],has antitumor activity
same,order of intensities of the antitumor activity,Meth A sarcoma; [10],peptide of SEQ ID NO:28=peptide of SEQ ID NO:29>peptide of SEQ ID NO:30=peptide of SEQ ID NO:31>peptide of SEQ ID NO:32
SEQ ID NO: 30: 4-Residue peptide comprising positions 3 to 12 of SEQ ID NO: 5 (WRPA; phage library),antitumor activity (tumor volume),Meth A sarcoma; [10],has antitumor activity
same,order of intensities of the antitumor activity,Meth A sarcoma; [10],peptide of SEQ ID NO:28=peptide of SEQ ID NO:29>peptide of SEQ ID NO:30=peptide of SEQ ID NO:31>peptide of SEQ ID NO:32
SEQ ID NO: 31: 4-Residue peptide comprising positions 10 to 13 of SEQ ID NO: 6 (WRPW; phage library),antitumor activity (tumor volume),Meth A sarcoma; [10],has antitumor activity
same,order of intensities of the antitumor activity,Meth A sarcoma; [10],peptide of SEQ ID NO:28=peptide of SEQ ID NO:29>peptide of SEQ ID NO:30=peptide of SEQ ID NO:31>peptide of SEQ ID NO:32
Trp-Arg-Pro (WRP; phage library) [SEQ ID NO: 32],antitumor activity (tumor volume),Meth A sarcoma; [10],has antitumor activity
same,order of intensities of the antitumor activity,Meth A sarcoma; [10],peptide of SEQ ID NO:28=peptide of SEQ ID NO:29>peptide of SEQ ID NO:30=peptide of SEQ ID NO:31>peptide of SEQ ID NO:32
